Results reported in patent EP4725505A1, “PROPHYLACTIC AND/OR THERAPEUTIC AGENT FOR SKIN DISORDER ASSOCIATED WITH HISTONE DEACETYLASE 4 ABNORMALITY” (National University Corporation Kobe University, priority 2023, dated 2025).

Tested on: HDAC4
Assay: Improving action on expression of HDAC4 in UV-B-irradiated XP-A-iMCs (RT-PCR)
Assay type: cell-based, human
Conditions: XP-A-iMCs irradiated with high-dose (150 J/m^2) UV-B, compound then added to cell medium, cultured for 24 hours, DMSO control
Procedure: The XP-A-iMCs were seeded into a 60-millimeter dish, and were irradiated with high-dose (150 J/m^2) UV-B when the XP-A-iMCs became about 70% confluent. […] After that, the expression of HDAC4 was recognized by using a RT-PCR method.
The XP-A-iMCs were seeded into a 60-millimeter dish, and were irradiated with high-dose (150 J/m^2) UV-B when the XP-A-iMCs became about 70% confluent.

SMILES: CC1=NN(c2ccc(C(=O)O)cc2)C(=O)C1=Cc1ccc(-c2cc(C)c(C)cc2[N+](=O)[O-])o1 [C-646]
- expression of HDAC4: significantly recovered
